Measurements taken from US20240002405A1, “ANTIMICROBIAL COMPOUNDS, SYNTHESIS METHODS, AND USES THEREOF” (Ankh Life Sciences Limited, priority 2022, published 2024).
Values after ≈ are worked out from the molar mass of the structure shown. Like-named read-outs stand apart in the source and are kept apart here. One block for each compound: values may come before it.

How the values were obtained:
E. faecalis (ATCC 29212) [1] = assay: Minimum bactericidal concentration (MBC) assay, E. faecalis; type: cell-based, Enterococcus faecalis
Description: (§1) (f) Determination of MBC: MBC was determined by sampling all the macroscopically clear wells. Before sampling, the wells were gently mixed by flushing them with a pipette, and a 5 μL was removed and placed on an agar plate suitable for the growth of the microbe being tested. The agar plate was divided into three parts to test three trials of a single concentration. The sample was allowed to be absorbed into the agar for ˜30 minutes. The plates were then incubated for 24 hours at 37° C. After incubation, the plates were examined to determine the compound concentration at which 99.9% killing was achieved.

S. aureus (ATCC 29213) [2] = assay: Broth microdilution MIC assay, S. aureus; conditions: for MIC: Staphylococcus aureus
[3] = tested on: MRSA: S. aureus resistant to methicillin and oxacillin (ATCC 43300); assay: Broth microdilution MIC assay, MRSA; conditions: Staphylococcus aureus, ATCC43300|MRSA, read-out: MIC (bacterial growth inhibition)
E. faecalis (ATCC 29212) [4] = assay: Broth microdilution MIC assay, E. faecalis; conditions: Enterococcus faecalis, ATCC29212, read-out: MIC (bacterial growth inhibition)
MRSA (ATCC 43300) = assay: Minimum bactericidal concentration (MBC) assay, MRSA; type: cell-based; conditions: Staphylococcus aureus
Description: as §1

S. aureus (ATCC 29213) [5] = assay: Minimum bactericidal concentration (MBC) assay, S. aureus; type: cell-based; conditions: Staphylococcus aureus
Description: as §1

VREF (ATCC 51299) = assay: Minimum bactericidal concentration (MBC) assay, VREF; type: cell-based, Enterococcus faecalis; conditions: Enterococcus faecalis, ATCC51299, read-out: MBC (bactericidal activity)
Description: as §1

[6] = tested on: VREF: E. faecalis resistant to vancomycin (ATCC 51299); assay: Broth microdilution MIC assay, VREF; conditions: Enterococcus faecalis, ATCC51299, read-out: MIC (bacterial growth inhibition)
E. coli (ATCC 25922) = assay: Broth microdilution MIC assay, E. coli
Solubility in DMSO = type: physicochemical
[7] = tested on: Candida albicans (ATCC 18804); assay: Antifungal broth microdilution MIC assay; type: cell-based; conditions: Candida albicans, ATCC18804, C. albicans, read-out: MIC (antifungal growth inhibition)
Description: Synthesized compounds were tested for antifungal activity towards the fungus strain, Candida albicans. […] Different concentrations of the compounds were tested for the exact same number of fungi, and the growth is monitored with time. MIC was determined by using the broth microdilution assay. Fungus strain, C. albicans was purchased from ATCC (ID: 18804) for the studies. […] This solution was used to make a working solution by preparing a 1:50 dilution, followed by a 1:20 dilution, with RPMI 1640 medium to obtain 2× test inoculum. The 2× inoculum is diluted 1:1 to achieve the final inoculum size (0.5×10^3 to 2.5×10^3 cells per mL). RPMI 1640 medium was used with L-glutamine and phenol red as a pH indicator but without bicarbonate and a glucose concentration of 0.2%. […] All plates were then read visually under normal laboratory lighting using a mirror viewer. Wells were scored for the growth compared to that of the drug free control well. Plates were read at 530 nm with subtraction of the blank from the reading of each well. Turbidity (OD) increases as the fungus grows over time.

[8] = tested on: gram positive and negative bacteria; assay: Antibacterial testing against gram positive and negative bacteria; type: cell-based
Description: In addition to the harmaline dimers compounds, other bicyclic indole compounds (203, 233, 476/6 and 504/6,) were also tested against gram positive and negative bacteria. Particularly, the indole ethyl urea molecules 203, 233 and the tryptamide dimer molecules 476/6, 504/6, as shown below, were tested.

[9] = ATCC29213, read-out: MIC (bacterial growth inhibition), S. aureus, time not given
[10] = ATCC29213, 24 h, S. aureus, read-out: MBC (kills bacteria)

SMILES: CN[C@H](CC(C)C)C(=O)N[C@H]1C(=O)N[C@@H](CC(N)=O)C(=O)N[C@H]2C(=O)N[C@H]3C(=O)N[C@H](C(=O)N[C@H](C(=O)O)c4cc(O)cc(O)c4-c4cc3ccc4O)[C@H](O)c3ccc(c(Cl)c3)Oc3cc2cc(c3O[C@@H]2O[C@H](CO)[C@@H](O)[C@H](O)[C@H]2O[C@H]2C[C@](C)(N)[C@H](O)[C@H](C)O2)Oc2ccc(cc2Cl)[C@H]1O [Vancomycin, reference compound]
MBC (kills bacteria) (E. faecalis (ATCC 29212) [1]): 6.25 µg/mL (≈ 4.31 µM) | MIC (S. aureus (ATCC 29213) [2]; ATCC29213, read-out: MIC (bacterial growth inhibition)): 1.56 µg/mL (≈ 1.08 µM) | MIC [3]: 1.56 µg/mL (≈ 1.08 µM) | MIC (E. faecalis (ATCC 29212) [4]): 3.12 µg/mL (≈ 2.15 µM) | MBC (MRSA (ATCC 43300)): 1.56 µg/mL | MBC (S. aureus (ATCC 29213) [5]; ATCC29213, 24 h, read-out: MBC (kills bacteria)): 1.56 µg/mL | MBC (VREF (ATCC 51299)): > 100 µg/mL | MIC [6]: 25 µg/mL (≈ 17.3 µM)

SMILES: COc1ccc2c3c([nH]c2c1)C(CC(CC1=NCCc2c1[nH]c1cc(OC)ccc21)c1cncs1)=NCC3 [GK524]
MIC (bacterial growth inhibition) (E. coli (ATCC 25922); E. coli): No bacteriostatic or bactericidal activities were observed | solubility in DMSO (time to dissolve) (Solubility in DMSO): instantly | MIC (S. aureus (ATCC 29213) [2]; [9]): 32.7 µg/mL (≈ 62.5 µM) | higher efficacy than harmaline (S. aureus (ATCC 29213) [2]; antibacterial efficacy versus harmaline): ~15 fold | higher antibacterial activity than harmaline dimer without a substitution (GZ440/6) (S. aureus (ATCC 29213) [2]; versus GZ440/6): 1.75 fold | MIC [3]: 16.4 µg/mL (≈ 31.2 µM) | MBC (MRSA (ATCC 43300); MRSA, read-out: MBC): 32.7 µg/mL | MBC (MRSA (ATCC 43300); MRSA, read-out: MRSA-MBC): 62.5 µM | MIC ([7]; after 24 hours of incubation): 12.2 µg/mL (≈ 23.4 µM) | MIC ([7]; after 48 hours of incubation): 25 µg/mL (≈ 47.7 µM) | bacteriostatic/bactericidal activity [8]: show bacteriostatic and bactericidal activity | MBC (S. aureus (ATCC 29213) [5]; [10]): 65.5 µg/mL | MBC (S. aureus (ATCC 29213) [5]; ATCC29213, S. aureus, read-out: MBC (bactericidal activity)): 125 µM

MIC (bacterial growth inhibition) (E. coli (ATCC 25922); E. coli): no activity was observed | MIC (S. aureus (ATCC 29213) [2]; ATCC29213, 24 h, read-out: MIC (bacterial growth inhibition), S. aureus, up to 24 hours): 64.7 µg/mL (≈ 125 µM) | MIC ([3]; 24 h): 64.7 µg/mL (≈ 125 µM)
SMILES: COc1ccc2c3c([nH]c2c1)C(CC(CC1=NCCc2c1[nH]c1cc(OC)ccc21)c1ccncc1)=NCC3 [GK517.4]
MBC (MRSA (ATCC 43300); MRSA, read-out: MBC): > 129 µg/mL | MBC (MRSA (ATCC 43300); MRSA, read-out: MRSA-MBC): > 250 µM | MBC (S. aureus (ATCC 29213) [5]; [10]): 64.7 µg/mL

SMILES: COc1ccc2c(CCNC(=O)CC(C)(C)CC(=O)NCCc3c[nH]c4cc(OC)ccc34)c[nH]c2c1 [504/6]
bacteriostatic/bactericidal activity [8]: no bacteriostatic/bactericidal activity observed

MIC (bacterial growth inhibition) (E. coli (ATCC 25922); E. coli): didn't show any activity | MIC (S. aureus (ATCC 29213) [2]; [9]): 100 µg/mL (≈ 315 µM)
SMILES: COc1ccc2c3c([nH]c2c1)C(/C=C/c1ccccc1N)=NCC3 [GK317]

SMILES: COc1ccc2c3c([nH]c2c1)C(/C=C\c1cc(Br)ccc1/N=C/c1cc(Br)ccc1N)=NCC3 [GK578, 4-bromo-2-((E)-((4-bromo-2-((Z)-2-(7-methoxy-4,9-dihydro-3H-pyrido[3,4-b]indol-1-yl)vinyl)phenyl)imino)methyl)aniline]
concentration showing significant reduction in growth (E. coli (ATCC 25922); E. coli): 3.12 µg/mL | inhibition in growth (E. coli (ATCC 25922); incubated with E. coli for 10-75 hrs): 50%

MIC (bacterial growth inhibition) (E. coli (ATCC 25922); E. coli): 6.25 µg/mL (≈ 10.4 µM) | MIC (E. coli (ATCC 25922); Escherichia coli, ATCC25922, read-out: MIC (bacterial growth inhibition), E. coli): 12.5 µg/mL (≈ 20.8 µM) | MIC (bacterial growth inhibition) (S. aureus (ATCC 29213) [2]; S. aureus, time not given): 3.5 µg/mL (≈ 5.83 µM) | MIC (S. aureus (ATCC 29213) [2]; [9]): 3.1 µg/mL (≈ 5.16 µM) | MIC [3]: 2.75 µg/mL (≈ 4.58 µM)
SMILES: COc1ccc2c3c([nH]c2c1)C(CC(CC1=NCCc2c1[nH]c1cc(OC)ccc21)c1c[nH]c2cccc([N+](=O)[O-])c12)=NCC3 [GK600]

MIC (S. aureus (ATCC 29213) [2]; [9]): 12.5 µg/mL (≈ 34.6 µM) | MIC ([7]; after 24 hours of incubation): 50 µg/mL (≈ 138 µM)
SMILES: COc1ccc2c3c([nH]c2c1)C(/C=C/c1cc(C(=O)O)ccc1N)=NCC3 [GK360]
concentration showing ~50% growth inhibition (E. coli (ATCC 25922); E. coli): 0.78 µg/mL

MIC (S. aureus (ATCC 29213) [2]; [9]): 25 µg/mL (≈ 63.1 µM) | MIC ([7]; after 48 hours of incubation): 50 µg/mL (≈ 126 µM)
SMILES: COc1ccc2c3c([nH]c2c1)C(/C=C/c1cc(Br)ccc1N)=NCC3 [GK395]
concentration showing ~50% growth inhibition (E. coli (ATCC 25922); E. coli): 3.5 µg/mL

SMILES: NC(=O)NCCc1c[nH]c2ccccc12 [Compound 203]
bacteriostatic/bactericidal activity [8]: no bacteriostatic/bactericidal activity observed
